Assay results published in patent publication US20200289605A1, “COMPOSITION FOR IMPROVING OR PREVENTING NONALCOHOLIC FATTY LIVER” (KOHJIN LIFE SCIENCES CO., LTD., priority 2015, published 2020).

Tests used:
[1] = test system: subjects who had NAFLD in 31 IU/L or more of ALT
[2] = test system: Mice (C57/B6J) fed with high-fat food
Description: Mice (C57/B6J, 8 weeks old male) were divided into 4 groups (5 animals each), and the first group (DB) was freely fed with ordinary food (Certified Diet “MF” manufactured by Oriental Yeast Co., ltd.). The second group (HFD) was freely fed with high-fat food (High Fat Diet 32, manufactured by CLEA Japan, Inc.), […].
When the mouse was 20 weeks old, the body weight, the liver weight, the serum aspartate aminotransferase (AST), the alanine aminotransferase (ALT), the serum triglyceride (TG), the free fatty acid value (FFA) and the total cholesterol value (T-cho) were measured.

[3] = HFD6 and HFD60 groups in comparison to the HFD group, 20 weeks old
[4] = high-fat food mice, glutathione 6 or 60 mg/kg/day in water, 20 weeks old

## N[C@@H](CCC(=O)N[C@@H](CS)C(=O)NCC(=O)O)C(=O)O [glutathione]
[1]; Case IDs 10 to 16, 300 mg per day oral
  Effect of the present invention (ALT criterion): not affected
[1]; after treatment, oral glutathione 300 mg per day, one value per subject (Case ID)
  FibroScan (after treatment) CAP: 280 dBe
[2]; [3]
  FFA (free fatty acid value): significant decrease
  T-cho (total cholesterol value): significant decrease
  TG (triglyceride value): significant decrease
  serum ALT: significant decrease
  serum AST: significant decrease
[2]; high-fat food mice, glutathione 6 or 60 mg/kg/day in water
  deposition of fat on the liver by high-fat food: suppressed
[2]; [4]
  liver weight: decreased dependently on the concentration
  ratio of liver weight/body weight: decrease of the body weight ratio was also recognized
